Measured values reported in US7521057B2, “Lamprey GnRH-III polypeptides and methods of making thereof” (University of New Hampshire, priority 2002, dated 2009).
Like-named read-outs stand apart in the source and are kept apart here. [ ]: non-standard residue; d: D form. pGlu = O=C1CC[C@@H](C(=O)O)N1

Experiments:
[1] = biological target: type-II GnRH binding site; test: Competition binding in pituitary of male sea lampreys, type-II GnRH binding site; set-up: species or system P. marinus; conditions: for Ki: pituitary of adult male land-locked P. marinus, tracer iodinated [DAla6, Pro9Net]-mammalian GnRH, K1 from IC50
Description: (§1) In another study, the binding affinity in the pituitary of male sea lampreys was determined with lamprey GnRH-I and -III analogs in an effort to better understand the structure-activity relations of the lamprey GnRH molecule (Mateme and Sower, unpublished). Competition studies were performed using the iodinated DAla^6, Pro^9Net]-mammalian GnRH as the tracer with each of the following analogs: [D-Phe^2, Gly^6]-lGnRH-I (Peninsula Labs, Cali.); and the following lGnRH-III analogs: [D-Phe^2,6, Pro^3], [D-Phe^2, Gly^6], and [Ac-Delta-3Pro, 4FDPhe^2-D-Trp^3,6] from American Peptide, Cali. […] The level of significance was P<0.0001 See TABLE 5 for the results of these experiments. The results shown in Table 5 summarize experiments using various analogs.
(§2) Inhibition constants (K1) of lamprey GnRH-putative antagonists in the pituitary of adult male land-locked P. marinus. […] The data were plotted on a logit-log plot and the K1 determined from the IC50 using the Prism software.

[2] = biological target: type-I GnRH-binding site; test: Competition binding in pituitary of male sea lampreys, type-I GnRH binding site; set-up: species or system P. marinus; conditions: for Ki: pituitary of adult male land-locked P. marinus, tracer iodinated [DAla6, Pro9Net]-mammalian GnRH, K1 from IC50
Description: as §1, §2

[3] = test system: adult sea lampreys; conditions: cited from earlier work; for plasma estradiol: adult female lampreys, injections; for ovulation / timing of ovulation: female lampreys; for gametogenesis: male and female sea lampreys, previous studies
[4] = test system: adult male and female sea lamprey; conditions: compared to controls, cited from earlier work; for spawning behavior: experiment 2, females
[5] = Plasma GnRHa after injection of sustained-release microspheres or implants in lampreys; assay type: in vivo, sea lamprey
Description: Thus, experiments were conducted to determine the optimal injection site and delivery agent that would best ensure a slow, constant release of the active compound, in this case, D-Ala^6 Pro^9Net mammal GnRH (GnRHa) over a period of four weeks. In the plasma, GnRH is easily degraded by protolytic enzymes. Therefore a simple injection will not elevate plasma GnRH levels for the duration of time required to ensure the appropriate reproductive effect. If a GnRH analog were used to sterilize wild fish, the method would have to maintain high levels of GnRH in the plasma for the length of the spawning season, or about 6 weeks in the case of sea lamprey in the Great Lakes. It was believed that controlled release of GnRH could be attained by injection of biodegradable microspheres or implants containing a GnRH analog, and experiments were performed to determine if high enough GnRH levels could be maintained for the required duration using such a method.
In Applicant's experiments microspheres (in a dose of 75 ug GnRHa/lamprey) and 2 mm implants were injected either intramuscularly (IM) or intraperitoneally (IP). At week 1, plasma GnRHa was detected in two-thirds of the lampreys injected IP, either with microspheres (5.0+/−1.3 ng/ml) or implants (1.6+/−0.3 ng/ml).
Only the lampreys injected IM with microspheres still had detectable levels of GnRHa after 3 weeks (2.9+/−1.5 ng/ml). Based on the results of these experiments, the best method of sustained release of GnRHa was determined to be via IM injection using microspheres.

[6] = pituitary of male sea lampreys, in words

Row | Compound | Ki [1] [nM] | Ki [2] [nM] | spawning activity ([4]; experiment 3, males) | plasma estradiol [3] | ovulation / timing of ovulation [3] | gametogenesis [3] | spawning behavior [4] | spawning activity ([4]; experiment 2, males) | further results
1 | [D-Phe^2, Gly^6]-lGnRH-I [[D-Phe^2, Gly^6]-1GnRH-I] | 5650 | 1.37 | – | – | – | – | – | – | –
2 | lamprey GnRH-I: native decapeptide pGlu His Tyr Ser Leu Glu Trp Lys Pro Gly-NH2 (Table 1) ([pGlu]HYSLEWKPG-NH2; SMILES CC(C)C[C@H](NC(=O)[C@H](CO)NC(=O)[C@H](Cc1ccc(O)cc1)NC(=O)[C@H](Cc1c[nH]cn1)NC(=O)[C@@H]1CCC(=O)N1)C(=O)N[C@@H](CCC(=O)O)C(=O)N[C@@H](Cc1c[nH]c2ccccc12)C(=O)N[C@@H](CCCCN)C(=O)N1CCC[C@H]1C(=O)NCC(N)=O) | – | – | delayed spawning activity | – | – | – | – | – | spermiation/ovulation ([3]; adult sea lampreys): induce; steroidogenesis ([3]; adult sea lampreys): induce
3 | [Ac-3 Pro^1, 4-FD-Phe^3, D-Trp^3,6] mammalian GnRH | – | – | – | no apparent effect | no apparent effect | decrease gametogenesis | – | – | –
4 | [D-Ala^6, Pro^9 Net lamprey GnRH] [lamprey GnRH agonist] | – | – | inhibited spawning activity | – | – | – | inhibited | stimulated earlier spawning activity | –
5 | [D-Phe^2,6, Pro^3] lamprey GnRH | – | – | induced earlier spawning activity | – | inhibited ovulation | decrease gametogenesis | inhibited | stimulated earlier spawning activity | plasma progesterone levels ([3]; male sea lampreys): reduced; spermiation ([3]; male sea lampreys): inhibited spermiation
6 | CCNC(=O)[C@@H]1CCCN1C(=O)[C@H](CCCNC(=N)N)NC(=O)[C@H](CC(C)C)NC(=O)[C@@H](C)NC(=O)[C@H](Cc1ccc(O)cc1)NC(=O)[C@H](CO)NC(=O)[C@H](Cc1c[nH]c2ccccc12)NC(=O)[C@H](Cc1c[nH]cn1)NC(=O)[C@@H]1CCC(=O)N1 [[DAla^6, Pro^9Net]-m GnRH, [DAla^6, Pro^9Net]-mammalian GnRH] | 89 | 0.00311 | – | significantly elevated | advanced ovulation by at least several weeks | – | – | – | affinity for type-II GnRH binding site [1, 6]: high affinity; level at 504 h ([5]; plasma, 75 ug GnRHa/lamprey, after 3 weeks, microspheres injected IM): 2.9 ng/mL; level at 168 h ([5]; plasma, 75 ug GnRHa/lamprey, week 1, microspheres injected IM): 4.2 ng/mL; level at 336 h ([5]; plasma, 75 ug GnRHa/lamprey, week 2, microspheres injected IM): 3.1 ng/mL; level at 168 h ([5]; plasma, week 1, 2 mm implants injected IP): 1.6 ng/mL; level at 168 h ([5]; plasma, week 1, microspheres injected IP, 75 ug GnRHa/lamprey): 5 ng/mL; share of lampreys with detectable plasma GnRHa ([5]; week 1, injected IP, microspheres or implants): two-thirds; share of lampreys with detectable plasma GnRHa ([5]; week 1, microspheres injected IM): Ninety percent; share of lampreys with detectable plasma GnRHa ([5]; week 2, IP with microspheres and IP with implants): less than thirty percent; share of lampreys with detectable plasma GnRHa ([5]; week 2, microspheres injected IM): ninety-two percent; affinity for type-I GnRH binding site [2, 6]: high affinity
